Laboratory results: patent US6147100A, “Pyrrolidine derivatives having phospholipase A2 inhibitory activity” (Shionogi & Co., Ltd., priority 1997, dated 2000)

How the values were obtained:
[1] = target: T1, cPLA2 (Homo sapiens, UniProt P47712); assay: cPLA2 Inhibitory Activity; assay type: biochemical; conditions: 1-palmitoyl-2-[14C]-arachidonoyl-sn-glycero-3-phosphocholine 2.5 μM, sn-1,2-dioleoylglycerol 1.25 μM; pH 7.5, 15 min at 37° C.
T1 sequence (P47712 1-749): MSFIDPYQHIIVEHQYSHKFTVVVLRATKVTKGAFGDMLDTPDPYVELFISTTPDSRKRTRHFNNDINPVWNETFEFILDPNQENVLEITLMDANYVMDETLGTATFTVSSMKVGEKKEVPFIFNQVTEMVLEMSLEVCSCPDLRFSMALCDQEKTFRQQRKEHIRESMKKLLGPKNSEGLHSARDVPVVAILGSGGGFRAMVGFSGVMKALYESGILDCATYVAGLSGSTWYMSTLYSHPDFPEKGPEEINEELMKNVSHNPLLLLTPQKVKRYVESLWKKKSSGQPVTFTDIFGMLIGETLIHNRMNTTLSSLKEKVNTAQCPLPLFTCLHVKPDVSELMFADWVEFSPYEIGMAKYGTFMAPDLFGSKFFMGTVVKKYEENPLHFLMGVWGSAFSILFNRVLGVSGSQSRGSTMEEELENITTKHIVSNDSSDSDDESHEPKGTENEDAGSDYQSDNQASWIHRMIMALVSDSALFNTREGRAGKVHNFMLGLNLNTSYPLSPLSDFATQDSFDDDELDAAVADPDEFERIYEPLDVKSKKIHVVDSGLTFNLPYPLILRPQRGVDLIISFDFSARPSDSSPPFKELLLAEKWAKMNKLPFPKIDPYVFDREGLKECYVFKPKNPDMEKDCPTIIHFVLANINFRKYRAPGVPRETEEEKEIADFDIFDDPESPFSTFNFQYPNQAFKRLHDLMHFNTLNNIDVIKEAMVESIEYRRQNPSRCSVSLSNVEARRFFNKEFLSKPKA
Method in brief: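 Radiometric assay in 50 mM HEPES pH 7.5 with 1 mM CaCl2, 150 mM NaCl, 0.1 mg/ml BSA and 1.7 mM DTT; compound and substrate added, reaction started with enzyme, 15 min at 37° C. Released fatty acids extracted (Dole method), counted by liquid scintillation versus no-compound control.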

[2] = tested on: production of prostaglandin E2 by human fibroblasts; assay: Inhibition of Production of Prostaglandin E2 in Human Fibroblasts (IL-1 stimulation); assay type: cell-based; conditions: Fibroblast; human fibroblasts under stimulation with IL-1
Method in brief: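 Human fibroblasts stimulated with IL-1, with prostaglandin E2 production measured in the presence of compound as a cellular read-out of cPLA2 inhibition.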

Row | Compound | IC50 [1] [nM] | IC50 [2] [nM]
1 | O=C1NC(=O)/C(=C/c2ccc(C(=O)NC[C@@H]3C[C@@H](Oc4ccc(/C=C/c5ccccc5)cc4)CN3C(=O)c3ccccc3C(=O)c3ccc(F)cc3)cc2)S1 [Compound A-82] | 50 | 45
2 | COc1cccc(-c2cccc3ccccc23)c1O[C@@H]1C[C@@H](CNC(=O)c2ccc(/C=C3\SC(=O)NC3=O)cc2)N(C(=O)c2ccccc2C(=O)c2ccc(F)cc2)C1 [Compound A-118] | 8 | 2200
3 | O=C1NC(=O)/C(=C/c2ccc(C(=O)NC[C@@H]3C[C@@H](Oc4ccc5ccccc5c4-c4ccccc4)CN3C(=O)c3ccccc3C(=O)c3ccc(F)cc3)cc2)S1 [Compound A-86] | 28 | 93
4 | CN(c1ccccc1)c1cccc(O[C@@H]2C[C@@H](CNC(=O)c3ccc(/C=C4\SC(=O)NC4=O)cc3)N(C(=O)c3ccccc3C(=O)c3ccc(F)cc3)C2)c1 [Compound A-91] | 50 | 940
5 | O=C1NC(=O)/C(=C/c2ccc(C(=O)NC[C@@H]3C[C@@H](OCc4ccccc4-c4ccccc4)CN3C(=O)c3ccccc3C(=O)c3ccccc3)cc2)S1 [Compound A-1] | 170 | 170
6 | O=C1NC(=O)/C(=C/c2ccc(C(=O)NC[C@H]3C[C@H](SCc4ccccc4-c4ccccc4)CN3C(=O)c3ccccc3C(=O)c3ccc(F)cc3)cc2)S1 [Compound Q-4] | 1850 | 950
7 | O=C1NC(=O)/C(=C/c2ccc(C(=O)NC[C@@H]3C[C@@H](Oc4cccc(-c5ccccc5)c4)CN3C(=O)c3ccccc3C(=O)c3ccc(F)cc3)cc2)S1 [Compound A-69] | 72 | 190
8 | O=C1NC(=O)/C(=C/c2ccc(C(=O)NC[C@@H]3C[C@H](OCc4ccccc4-c4ccccc4)CN3C(=O)c3ccccc3C(=O)c3ccc(F)cc3)cc2)S1 [Compound Q-3] | 200 | 490
9 | Cc1ccccc1-c1ccccc1O[C@@H]1C[C@@H](CNC(=O)c2ccc(/C=C3\SC(=O)NC3=O)cc2)N(C(=O)c2ccccc2C(=O)c2ccc(F)cc2)C1 [Compound A-97] | 51 | 640
10 | O=C1NC(=O)/C(=C/c2ccc(C(=O)NC[C@@H]3C[C@@H](Oc4ccccc4-c4cccc(C(F)(F)F)c4)CN3C(=O)c3ccccc3C(=O)c3ccc(F)cc3)cc2)S1 [Compound A-109] | 59 | 1200
11 | O=C1NC(=O)/C(=C/c2ccc(C(=O)NC[C@@H]3C[C@@H](OCc4ccccc4-c4ccccc4)CN3C(=O)CCC(=O)c3ccc(F)cc3)cc2)S1 [Compound A-6] | 4800 | 8900
12 | O=C1NC(=S)S/C1=C\c1ccc(NC(=O)[C@@H]2C[C@@H](SCc3ccccc3-c3ccccc3)CN2C(=O)c2ccccc2C(=O)c2ccc(F)cc2)cc1 [Compound J-2] | 23 | 960
13 | O=C1NC(=S)S/C1=C\c1ccc(C(=O)NC[C@@H]2C[C@@H](SCc3ccccc3-c3ccccc3)CN2C(=O)c2ccccc2C(=O)c2ccc(F)cc2)s1 [Compound I-8] | 33 | 1000
14 | O=C1NC(=O)C(=C/C=C/c2ccc(C(=O)NC[C@@H]3C[C@@H](OCc4ccccc4-c4ccccc4)CN3C(=O)c3ccccc3C(=O)c3ccc(F)cc3)cc2)S1 [Compound A-49] | 49 | 120
15 | Cc1cccc(-c2ccccc2O[C@@H]2C[C@@H](CNC(=O)c3ccc(/C=C4\SC(=O)NC4=O)cc3)N(C(=O)c3ccccc3C(=O)c3ccc(F)cc3)C2)c1 [Compound A-108] | 44 | 470
16 | O=C1NC(=O)/C(=C/c2ccc(C(=O)NC[C@@H]3C[C@@H](SCc4ccccc4-c4ccccc4)CN3C(=O)c3ccccc3C(=O)c3ccc(F)cc3)cc2)S1 [Compound I-5] | 34 | 490
17 | O=C1NC(=O)/C(=C/c2ccc(C(=O)NC[C@@H]3C[C@@H](OCc4ccccc4-c4ccccc4)CN3C(=O)c3ccccc3C(=O)c3ccsc3)cc2)S1 [Compound A-18] | 1200 | 380
18 | CC(C)CN(C(c1ccccc1)c1ccccc1)[C@@H]1C[C@@H](CNC(=O)/C=C/c2ccc(/C=C3\SC(=O)NC3=O)cc2)N(C(=O)c2ccccc2C(=O)c2ccc(F)cc2F)C1 [Compound M-21] | 2.1 | 310
19 | O=C1NC(=O)/C(=C/c2ccc(C(=O)NC[C@@H]3C[C@@H](OCc4ccccc4-c4ccccc4)CN3C(=O)C3CCCCC3C(=O)c3ccccc3)cc2)S1 (some centres unmarked) [Compound A-10] | 3200 | 470

Row | Compound | IC50 [1] [nM] | IC50 [2] [nM]
20 | O=C1NC(=O)/C(=C/c2ccc(C(=O)NC[C@@H]3C[C@@H](OCc4ccccc4-c4cccc5ccccc45)CN3C(=O)c3ccccc3C(=O)c3ccc(F)cc3)cc2)S1 [Compound A-35] | 40 | 180
21 | O=C1NC(=O)/C(=C/c2ccc(C(=O)NC[C@@H]3C[C@@H](Oc4ccccc4-c4ccccc4)CN3C(=O)c3ccccc3C(=O)c3ccc(F)cc3)cc2)S1 [Compound A-67] | 69 | 390
22 | Cc1ccc(C(=O)c2ccccc2C(=O)N2C[C@H](OCc3ccccc3-c3ccccc3)C[C@H]2CNC(=O)c2ccc(/C=C3\SC(=O)NC3=O)cc2)cc1 [Compound A-21] | 430 | 230
23 | O=C1NC(=O)/C(=C/c2ccc(C(=O)NC[C@@H]3C[C@@H](OCc4ccccc4-c4ccccc4)CN3C(=O)c3ccccc3C(=O)c3ccc(F)cc3F)cc2)S1 [Compound A-25] | 48 | 800
24 | O=C1NC(=O)/C(=C/c2ccc(C(=O)NC[C@@H]3C[C@@H](OCc4ccccc4-c4ccsc4)CN3C(=O)c3ccccc3C(=O)c3ccc(F)cc3)cc2)S1 [Compound A-38] | 84 | 430
25 | O=C1NC(=S)S/C1=C\c1ccc(C(=O)NC[C@@H]2C[C@@H](OCc3ccccc3-c3ccccc3)CN2C(=O)c2ccccc2C(=O)c2ccc(Cl)cc2)cc1 [Compound A-28] | 280 | 1400
26 | O=C1NC(=O)/C(=C/c2ccc(C(=O)NC[C@@H]3C[C@H](SCc4ccccc4-c4ccccc4)CN3C(=O)c3ccccc3C(=O)c3ccc(F)cc3)cc2)S1 [Compound I-1] | 100 | 260
27 | O=C1NC(=O)/C(=C/c2ccc(C(=O)NC[C@@H]3C[C@@H](Oc4ccccc4-c4ccccc4-c4ccccc4)CN3C(=O)c3ccccc3C(=O)c3ccc(F)cc3)cc2)S1 [Compound A-103] | 58 | 590
28 | O=C1NC(=O)/C(=C/c2ccc(C(=O)NC[C@@H]3C[C@@H](Oc4ccccc4-c4cccc([N+](=O)[O-])c4)CN3C(=O)c3ccccc3C(=O)c3ccc(F)cc3)cc2)S1 [Compound A-111] | 66 | 470
29 | O=C1NC(=O)/C(=C/c2ccc(C(=O)NC[C@@H]3C[C@@H](Oc4ccccc4Oc4ccccc4)CN3C(=O)c3ccccc3C(=O)c3ccc(F)cc3)cc2)S1 [Compound A-119] | 30 | 2800
30 | CC(C)CN(C(c1ccccc1)c1ccccc1)[C@@H]1C[C@@H](CNC(=O)c2ccc(/C=C3\SC(=O)NC3=O)cc2)N(C(=O)c2ccccc2C(=O)c2ccc(F)cc2F)C1 [Compound M-17] | 4.1 | 1000
31 | O=C1NC(=O)/C(=C/c2ccc(C(=O)NC[C@H]3C[C@@H](SCc4ccccc4-c4ccccc4)CN3C(=O)c3ccccc3C(=O)c3ccc(F)cc3)cc2)S1 [Compound Q-1] | 2510 | 1200
32 | O=C1NC(=O)/C(=C/c2ccc(C(=O)NC[C@@H]3C[C@@H](OCc4ccccc4-c4cccs4)CN3C(=O)c3ccccc3C(=O)c3ccc(F)cc3)cc2)S1 [Compound A-37] | 73 | 280
33 | O=C1NC(=S)S/C1=C\c1ccc(NC(=O)[C@@H]2C[C@@H](OCc3ccccc3-c3ccccc3)CN2C(=O)c2ccccc2C(=O)c2ccc(F)cc2)s1 [Compound B-7] | 1000 | 8100
34 | O=C1NC(=O)/C(=C/c2ccc(C(=O)NC[C@@H]3C[C@@H](OCc4ccccc4-c4ccccc4)CN3C(=O)c3ccccc3C(=O)c3cccs3)cc2)S1 [Compound A-19] | 1000 | 160
35 | O=C(C[C@@H]1C[C@@H](OCc2ccccc2-c2ccccc2)CN1C(=O)c1ccccc1C(=O)c1ccc(F)cc1)Nc1ccc(/C=C2\SC(=S)NC2=O)cc1 [Compound F-3] | 420 | 3000
36 | CC(C)CN(Cc1ccccc1-c1ccccc1)[C@@H]1C[C@@H](CNC(=O)c2ccc(/C=C3\SC(=O)NC3=O)cc2)N(C(=O)c2ccccc2C(=O)c2ccc(F)cc2)C1 [Compound M-10] | 22 | 270
37 | O=C1NC(=O)/C(=C/c2ccc(/C=C/C[C@@H]3C[C@@H](OCc4ccccc4-c4ccccc4)CN3C(=O)c3ccccc3C(=O)c3ccc(F)cc3)cc2)S1 [Compound E-14] | 98 | 5600
